For one test, the system named is AD169^R. Nature of the test: Virus pre-incubation / washout study. The format is cell-based, Human cytomegalovirus. To be noted: virus pre-incubated, compound washed out; MBX-4992 10 μM, heparin 50 μg/ml. The protocol: (B) Based on the schematic, AD169^R (MOI 0.2) was pre-incubated with DMSO, MBX-4992, or heparin for one hour before being added to NHDF cells. Virus/compound mix was washed out after 30 minutes as indicated and either unchanged or replaced with media containing DMSO, MBX-4992, or heparin. Virus infection was quantified at 24 hpi GFP fluorescence. Percent infection was normalized to untreated cells.
NHDF cells (10^4) plated overnight in a 96-well plate were incubated at 4° C. for 30 minutes with AD169^R CMV virus pretreated with MBX-4992 (10 μM), Heparin (50 μg/mL) or DMSO for 1 hour at room temperature (in triplicate). For 2/3rd of the samples, media was aspirated and half of the wells received DMSO media, regardless of which drug the virus was exposed to, or MBX-4992 (10 μM), or Heparin (50 μg/mL) overnight. At 18 hpi, the cells were fixed with 4% paraformaldehyde, stained with a rabbit anti-IE1 antibody followed by an anti-rabbit Alexa 647, and analyzed using the Celigo cytometer. The DMSO condition that was not aspirated post binding was set as 100% infection.
To further characterize the mechanism of action, pre-incubation/washout studies were performed using AD169^R and MBX-4992. […] At 18 hpi, cells were immunostained with an anti-IE1 antibody as a readout for infection and quantified using a Celigo cytometer. […]

For a further test, the system named is TB40/E. The test is described as follows: Plaque assay, MBX-4992 and ganciclovir alone and in combination. In kind it is cell-based, Human cytomegalovirus. To be noted: ARPE-19 and NHDF cells, 10 dpi; MBX-4992 1-20 μM, ganciclovir 2.5 μM.
Another test deals with HCMV AD169. Nature of the test: Herpes virus panel neutralization, HCMV AD169. The format is cell-based, Human cytomegalovirus. On the procedure:
(§1) To determine the specificity of MBX-4992, additional neutralization experiments were conducted using a panel of herpes viruses performed in the presence of MBX-4992. […] Collectively, the antiviral activity of MBX-4992 is equivalent to that of GCV indicating specific inhibition of CMV replication.

The subject of a further test is GpCMV 22122. The test is described as follows: Herpes virus panel neutralization, GpCMV. In kind it is cell-based, Guinea pig cytomegalovirus. On the procedure: as §1
The next test concerns VZV Ellen. The test is described as follows: Herpes virus panel neutralization, VZV. The format is cell-based, Varicella-Zoster virus. On the procedure:
as §1

Some results are limits rather than exact numbers.

This note sets out measurements from patent publication US20250177392A1, “BROAD SPECTRUM INHIBITORS OF CYTOMEGALOVIRUS” (MICROBIOTIX, INC., priority 2022, published 2025).

Experimental for TB40/E: At 10 day post-infection, representative whole well images of plaques >10,000 μm^2 (A and B) were quantified based on GFP fluorescence intensity and calculated relative to DMSO controls (C and D). Statistical tests were performed using ordinary one-way ANOVA with multiple comparisons to DMSO treated cells as a control and a Dunnett's post-test. *, p<0.05; **, p<0.01; ***, p<0.001; ****, p<0.0001.
At 10 days post-infection, representative whole well images of plaques >10,000 μm^2 (A and B) were quantified based on GFP fluorescence intensity and calculated relative to DMSO controls (C and D).

The term IC50 denotes the point on the concentration scale where inhibition reaches its midpoint. A higher IC50 goes with weaker potency. On to `Cc1nc(Nc2ccc(NC(=O)c3ccco3)cc2)cc(N2CCCC2)n1` [MBX-4992], for which the “decrease of infection after washing out” value in the test with AD169^R is recorded as ~25%. Moreover, the “viral plaques >10,000 μm^2, single drug” value in the test on TB40/E was “decreased”. Besides, the SI in the test with HCMV AD169 (HCMV AD169) is >88; with GpCMV 22122 it was <4; in the test with VZV Ellen it was <5. Besides, the IC50 with HCMV AD169 (Human betaherpesvirus 5, AD169) was 1.7 µM; in the test with GpCMV 22122 (Caviid betaherpesvirus 2), > 30 µM; in the test on VZV Ellen (Human alphaherpesvirus 3), > 30 µM.
